Values after ≈ are worked out from the molar mass of the structure shown. A value given as a limit tells only on which side of the number the result lay.

A short description of data set [1]: Cmax in rat administered with 2 mg/kg, po. The data set is classed as ADME, organism-based. Also noted: dose 2 mg/kg, route oral. Particulars: in vivo.
In data set [2] the test system is Rattus norvegicus. Briefly: AUC(0-6 h) in rat administered with 2 mg/kg, po. The data set is classed as ADME, organism-based, Plasma. On the set-up: time < 6 hr, dose 2 mg/kg, route oral. Particulars: in vivo.
Data set [3] concerns A549. Description: Inhibition of A549 cell migration. It counts as functional, cell-based. The note with it: Homo sapiens.
In data set [4] the target is Proto-oncogene tyrosine-protein kinase Src (Homo sapiens, UniProt P12931). Description: Inhibitory activity against c-Src kinase.
Proto-oncogene tyrosine-protein kinase Src, sequence (P12931 2-536 limits assumed): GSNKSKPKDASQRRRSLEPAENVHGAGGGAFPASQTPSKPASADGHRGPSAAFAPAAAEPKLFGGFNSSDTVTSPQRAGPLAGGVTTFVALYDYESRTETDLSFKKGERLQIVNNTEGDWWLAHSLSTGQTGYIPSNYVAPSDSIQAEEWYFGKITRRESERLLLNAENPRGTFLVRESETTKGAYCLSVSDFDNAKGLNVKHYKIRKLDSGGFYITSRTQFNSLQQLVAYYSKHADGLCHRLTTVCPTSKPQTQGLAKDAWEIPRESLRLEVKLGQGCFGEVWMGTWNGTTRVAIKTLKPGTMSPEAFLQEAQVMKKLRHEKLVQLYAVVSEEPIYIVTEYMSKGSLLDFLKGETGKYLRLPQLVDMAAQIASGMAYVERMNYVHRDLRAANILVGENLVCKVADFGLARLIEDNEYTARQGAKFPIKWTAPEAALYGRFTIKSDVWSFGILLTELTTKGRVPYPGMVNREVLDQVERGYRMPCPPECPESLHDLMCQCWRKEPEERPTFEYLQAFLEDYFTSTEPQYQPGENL
Data set [5] addresses Vascular endothelial growth factor receptor 2 (Homo sapiens, UniProt P35968). Description: Inhibitory activity against KDR.
Data set [6] is described as follows: Solubility in phosphate buffer at pH 7.4. It counts as physicochemical.
Data set [7] in a line: Percent of unbound ligand in rat plasma. It counts as ADME, organism-based.

Vascular endothelial growth factor receptor 2, sequence (P35968 whole entry): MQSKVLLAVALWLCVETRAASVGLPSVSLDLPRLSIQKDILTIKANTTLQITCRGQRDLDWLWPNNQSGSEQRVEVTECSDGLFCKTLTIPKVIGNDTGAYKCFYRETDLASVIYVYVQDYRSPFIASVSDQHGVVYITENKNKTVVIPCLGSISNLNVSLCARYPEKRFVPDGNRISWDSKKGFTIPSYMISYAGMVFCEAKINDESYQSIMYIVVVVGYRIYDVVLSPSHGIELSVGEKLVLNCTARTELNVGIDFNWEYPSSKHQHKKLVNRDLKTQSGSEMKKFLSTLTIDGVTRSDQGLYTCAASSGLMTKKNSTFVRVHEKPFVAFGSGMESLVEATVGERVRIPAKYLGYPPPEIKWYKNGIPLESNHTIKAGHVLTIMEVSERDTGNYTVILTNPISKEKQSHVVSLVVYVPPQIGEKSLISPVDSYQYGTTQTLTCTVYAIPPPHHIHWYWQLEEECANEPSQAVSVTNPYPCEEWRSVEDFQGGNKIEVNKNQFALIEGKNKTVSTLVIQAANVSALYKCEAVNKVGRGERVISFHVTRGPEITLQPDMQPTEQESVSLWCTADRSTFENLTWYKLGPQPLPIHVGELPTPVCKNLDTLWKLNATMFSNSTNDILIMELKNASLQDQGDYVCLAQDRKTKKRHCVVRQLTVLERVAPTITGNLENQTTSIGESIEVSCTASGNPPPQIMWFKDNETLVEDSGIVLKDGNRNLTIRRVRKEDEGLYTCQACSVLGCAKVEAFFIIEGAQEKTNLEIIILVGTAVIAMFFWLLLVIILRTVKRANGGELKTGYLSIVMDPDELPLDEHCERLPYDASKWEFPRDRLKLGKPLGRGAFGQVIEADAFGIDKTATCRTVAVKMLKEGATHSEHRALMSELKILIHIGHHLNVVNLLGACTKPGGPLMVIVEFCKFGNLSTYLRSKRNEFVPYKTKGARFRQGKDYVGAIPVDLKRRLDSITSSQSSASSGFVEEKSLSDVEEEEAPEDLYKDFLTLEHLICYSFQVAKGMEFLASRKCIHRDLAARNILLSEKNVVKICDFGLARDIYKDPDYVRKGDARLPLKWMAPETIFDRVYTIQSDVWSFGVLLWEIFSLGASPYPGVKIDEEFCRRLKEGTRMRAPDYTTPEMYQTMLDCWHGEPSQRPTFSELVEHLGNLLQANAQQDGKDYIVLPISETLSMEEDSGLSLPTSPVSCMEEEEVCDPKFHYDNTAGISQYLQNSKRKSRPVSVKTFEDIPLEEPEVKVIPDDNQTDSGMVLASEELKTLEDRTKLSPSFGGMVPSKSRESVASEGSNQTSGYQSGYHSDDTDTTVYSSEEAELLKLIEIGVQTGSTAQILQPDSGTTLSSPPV

Take `COc1cnc(Cl)c(Nc2ncnc3cc(OCCN4CCN(C(C)=O)CC4)cc(OC(C)C)c23)n1`: the peak level in data set [1] (Cmax) was 420 nM. Moreover, the AUC in data set [2] is 0.61 uMh. Moreover, the figures for the IC50 in data set [3], in data set [4] and in data set [5] were 140 nM, 8 nM and 2800 nM, respectively.
For `COc1cnc(Cl)c(Nc2ncnc3cc(OCCCN4CCOCC4)cc(OC(C)C)c23)c1`, the IC50 (in general, the concentration that inhibits the measured activity by half) in data set [4] amounted to 5 nM; in data set [5] it was 30 nM.
In the case of `COc1ccc(Cl)c(Nc2ncnc3cc(OCCCN4CCN(C(C)=O)CC4)cc(OC(C)C)c23)n1`, the results for the half-inhibitory concentration (IC50) in data set [3], in data set [4] and in data set [5] were 90 nM, less than 4 nM and 2700 nM, respectively.
Take `COc1ccc(Cl)c(Nc2ncnc3cc(OCCCN4CCN(C)CC4)cc(OC(C)C)c23)n1`: the IC50 in data set [3] was 90 nM; in data set [4] it was less than 4 nM; in data set [5] it was 680 nM.
The matching figures for `COc1cnc(Cl)c(Nc2ncnc3cc(OCCCN4CCOCC4)cc(OC4CCOCC4)c23)c1`: 290 nM, 7 nM and 30 nM.
Consider `COc1ccc(Cl)c(Nc2ncnc3cc(OCCN4CCOCC4)cc(OC(C)C)c23)n1`, for which the values for the IC50 in data set [3], in data set [4] and in data set [5] were 130 nM, 20 nM and 2900 nM, respectively.
Take `COc1ccc(Cl)c(Nc2ncnc3cc(OCCCN4CCOCC4)cc(OC4CCOCC4)c23)n1`: the IC50 in data set [3] came to 160 nM; in data set [4], 5 nM; in data set [5] it was 5500 nM.
As for `COc1cc(Nc2ncnc3cc(OCCCN4CCOCC4)cc(OC4CCOCC4)c23)c(Cl)cn1`, the values for the IC50 in data set [4] and in data set [5] were 400 nM and 80 nM, respectively.
For `COc1ccc(Cl)c(Nc2ncnc3cc(OCCN4CCN(C(C)=O)CC4)cc(OC(C)C)c23)n1`, the Cmax (usually the maximum level reached in the sampled fluid or tissue) in data set [1] amounted to 310 nM. Further, the AUC in data set [2] is 0.64 uMh. In addition, the solubility – broadly, the dissolved amount per volume that the medium holds – in data set [6] amounted to 43 µM (≈ 22.1 µg/mL). Further, in data set [7], the unbound share (fraction unbound) (as a rule, free concentration divided by total concentration) stood at 0.08. The IC50 stood at 90 nM in data set [3], 10 nM in data set [4] and 6300 nM in data set [5].
For the compound `COc1ncc(Cl)c(Nc2ncnc3cc(OCCN4CCN(C(C)=O)CC4)cc(OC(C)C)c23)n1`, the values for the IC50 in data set [3], in data set [4] and in data set [5] were 270 nM, 15 nM and 15000 nM, respectively.
For the compound `COc1cc(Nc2ncnc3cc(OCCCN4CCOCC4)cc(OC(C)C)c23)c(Cl)cn1`, the IC50 in data set [4] was 35 nM; in data set [5], less than 2 nM.
With `COc1ccc(Cl)c(Nc2ncnc3cc(OCCN4CCCC4)cc(OC(C)C)c23)n1`, the half-maximal inhibitory concentration (IC50) was 80 nM in data set [3], 15 nM in data set [4] and 3600 nM in data set [5].
Take `COc1ccc(Cl)c(Nc2ncnc3cc(OCCCN4CCOCC4)cc(OC(C)C)c23)c1`: the concentration for half-maximal inhibition (IC50) in data set [4] was 40 nM; in data set [5], 30 nM.
On to `COc1ccc(Cl)c(Nc2ncnc3cc(OCCCN4CCOCC4)cc(OC(C)C)c23)n1`, for which the half-maximal inhibitory concentration (IC50) was 90 nM in data set [3], less than 4 nM in data set [4] and 1900 nM in data set [5].
For `COc1ccc(Cl)c(Nc2ncnc3cc(OCCCN4CCCC4)cc(OC(C)C)c23)n1`, in that order: 140 nM, 6 nM and 900 nM.
For `COc1ccc(Cl)c(Nc2ncnc3cc(OCCN4CCN(C)CC4)cc(OC(C)C)c23)n1`, in that order: 170 nM, 7 nM and 570 nM.
As to `COc1ccc(Cl)c(Nc2ncnc3cc(OCCCN4CCOCC4)cc(OC4CCOCC4)c23)c1`, the half-inhibitory concentration (IC50) in data set [4] came to 10 nM; in data set [5], 400 nM.
